# Experimental data: patent US5240934A, “Quinoline derivatives” (priority 1990, dated 1993)
# Where a name gives a salt, the structure may show the parent alone.
# Tests used:
# [1] = system: Amnesia Induced by Scopolamine in Rats; experiment: Effects on amnesia induced by scopolamine in rats (passive avoidance test); assay type: in vivo, Male Wister rats; conditions: p.o., 15 min after scopolamine hydrochloride 0.5 mg/kg i.p.
# Description: Male Wister rats, 8 week old, were used as subjects. A conventional two-compartment box was used for the passive avoidance test.
# Tested compounds were given p.o. 15 minutes after scopolamine hydrochloride (0.5 mg/kg, i.p.). At 15 minutes after the tested compound treatment, scrambled foot-schock (0.5 mA for 3 seconds) was applied to the rat immediately after entry into the dark compartment. Retention was measured 24 hours after the training and was expressed as the mean latency to enter the dark compartment, with a cut-off point at 600 seconds. Percent improvement for the tested compounds was evaluated taking the difference between the retention latency of the untreated group and that of the control group as 100%.
# [2] = target: acetylcholinesterase (Homo sapiens, UniProt P22303); experiment: Inhibitive effect on acetylcholinesterase activity (anti-acetylcholinesterase activity); assay type: biochemical
# Description: Pharmacological action of the compound of the present invention was tested using several compounds prepared in Examples presented hereinafter and 9-amino-1,2,3,4-tetrahydroacridine (Tacrine) as a comparative compound.
# Specific activities for the tested compounds were calculated using the following equation. [formula]
# [3] = system: Amnesia Induced by Scopolamine in Mice; experiment: Effects on amnesia induced by scopolamine in mice (passive avoidance test); assay type: in vivo, Male ddy mice; conditions: p.o., 30 min before scopolamine 1 mg/kg i.p.
# Description: Male ddy mice, 6-7 week old, were used as subjects. A conventional two-compartment box was used for the passive avoidance test.
# Tested compounds were given p.o. 30 minutes before scopolamine (1 mg/kg, i.p.). At 30 minutes after the scopolamine treatment, scrambled foot-schock (2 mA for 3 seconds) was applied to the mouse immediately after entry into the dark compartment. Retention was measured 6 hours after the training and was expressed as the mean latency to enter the dark compartment, with a cut-off point at 300 seconds. Percent improvement for the tested compounds were evaluated taking the difference between the retention latency of the untreated group and that of the control group as 100%.
# [4] = system: senile dementia patients of Alzheimer type; conditions: Tacrine and lecithin; The New England Journal of Medicine, 315, 1241 (1986); cited from earlier work
# acetylcholinesterase, sequence (P22303 32-614): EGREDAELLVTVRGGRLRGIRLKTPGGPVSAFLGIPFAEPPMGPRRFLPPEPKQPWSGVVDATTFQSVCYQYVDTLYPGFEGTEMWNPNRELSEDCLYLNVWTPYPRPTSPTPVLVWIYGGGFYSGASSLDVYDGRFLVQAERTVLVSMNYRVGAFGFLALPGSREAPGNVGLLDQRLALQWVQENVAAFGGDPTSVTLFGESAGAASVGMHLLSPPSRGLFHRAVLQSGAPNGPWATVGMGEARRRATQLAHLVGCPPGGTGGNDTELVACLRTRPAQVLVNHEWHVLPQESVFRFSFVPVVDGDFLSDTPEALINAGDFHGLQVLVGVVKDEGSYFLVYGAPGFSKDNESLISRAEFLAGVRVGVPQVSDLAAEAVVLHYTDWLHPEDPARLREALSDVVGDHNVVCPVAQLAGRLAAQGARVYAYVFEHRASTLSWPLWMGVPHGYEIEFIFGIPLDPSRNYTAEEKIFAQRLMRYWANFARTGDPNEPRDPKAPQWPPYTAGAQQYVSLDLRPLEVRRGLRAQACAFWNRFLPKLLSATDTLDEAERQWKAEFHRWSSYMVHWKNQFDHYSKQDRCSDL
SMILES,Percent Improvement ([1]; 0.03 mg/kg),Percent Improvement ([1]; 0.1 mg/kg),Percent Improvement ([1]; 0.3 mg/kg),Anti-acetylcholinesterase Activity (Specific Activity) [2],Percent Improvement ([3]; 0.1 mg/kg),Percent Improvement ([3]; 0.3 mg/kg),improvement in symptoms of senile dementia patients of Alzheimer type [4],Percent Improvement ([3]; 1.0 mg/kg),Percent Improvement ([3]; 0.01 mg/kg),Percent Improvement ([3]; 0.03 mg/kg)
"COc1c2c(nc3ccccc13)CN(CCC1CCN(Cc3ccccc3)CC1)C2=O [Compound 67, 9-methoxy-2-(4-(1-benzylpiperidyl)ethyl)-2,3-dihydropyrrolo[3,4-b]quinolin-1-one]",50.4%,92.0%,95.8%,9.52,,,,,,
"Nc1c2c(nc3ccccc13)CCC(CCCCC1CCN(Cc3ccccc3)CC1)C2=O (stereo not drawn) [Compound 46, 9-Amino-2-(4-(1-benzylpiperidin-4-yl)butyl)-1,2,3,4-tetrahydroacridin-1-onedihydrochloride]",,32.3%,39.1%,47.62,,,,,,
"N#Cc1ccccc1NC1=CC(=O)N(CCCC2CCN(Cc3ccccc3)CC2)C1 [Compound 3, N-(1-(4-(1-benzylpiperidyl)propyl)-2-oxo-3-pyrrolin-4-yl)-2-aminobenzonitrile]",,,,13.5,16.0%,53.4%,,,,
"O=C1c2c(nc3ccccc3c2O)CN1CCC1CCN(Cc2ccccc2)CC1 [Compound 61, 9-hydroxy-2-(4-(1-benzylpiperidyl)ethyl)-2,3-dihydropyrrolo[3,4-b]quinolin-1-one]",33.0%,86.1%,86.5%,,,,,,,
"Nc1c2c(nc3ccccc13)CCCC2 [Tacrine, 9-amino-1,2,3,4-tetrahydroacridine, reference compound]",,,,,0%,,effectiveness,26.9%,,
"N#Cc1ccccc1NC1=CC(=O)N(CCC2CCN(Cc3ccccc3)CC2)C1 [Compound 2, N-(1-(4-(1-benzylpiperidyl)ethyl)-2-oxo-3-pyrrolin-4-yl)-2-aminobenzonitrile]",,,,7.7,,72.8%,,,10.0%,
"Nc1c2c(nc3ccccc13)CN(CCC1CCN(Cc3ccccc3)CC1)C2=O [Compound 7, 9-Amino-2-(4-(1-benzylpiperidyl)ethyl)-2,3-dihydropyrrolo-[3,4-b]quinolin-1-one]",36.1%,68.9%,69.8%,1.94,70.2%,,,,,52.0%
"Cl.Cl.Nc1c2c(nc3ccccc13)CCC(CCC1CCN(Cc3ccccc3)CC1)C2=O (stereo not drawn) [Compound 14, 9-amino-2-(2-(1-benzylpiperidin-4-yl)ethyl)-1,2,3,4-tetrahydroacridin-1-one dihydrochloride]",,0%,50.8%,5.00,71.9%,,,,,50.0%
